# From patent US11505523B2, “HDAC8 inhibitors for treating cancer” (City of Hope, priority 2013, dated 2022)
# Key:
# [1] = system: MV4-11 cells; assay: Survival/apoptosis of MV4-11 AML cells by Annexin V labeling; assay type: cell-based, human
# [2] = system: MOLM13 cells; assay: Survival/apoptosis of MOLM13 AML cells by Annexin V labeling; assay type: cell-based, human
# [3] = system: KG1a cells; assay: Survival of KG1a AML cells by Annexin V labeling; assay type: cell-based, human; details: 48 h, result in words
# [4] = system: Ac-p53 (K379) in 32D-CM cells; assay: Western blot of Ac-p53 in CBFβ-SMMHC (CM)-expressing 32D cells; assay type: cell-based
# Text: (§1) Cells were lysed in RIPA buffer containing protease inhibitor cocktail (Roche) and MG132. Antibodies used for IP were conjugated with protein A/G beads using the antibody cross-linking kit (Pierce Biotechnology, Rockford, Ill.) following manufacturer's protocol. For Western blot, proteins were resolved in 10% SDS-PAGE. The antibodies used induced anti-FLAG (Sigma), anti-HDAC8, anti-CBFβ (Santa Cruz), anti-p53 (DO-1), anti-Ac-p53 (K379) (Cell Signaling), anti-p53 (Cell signaling) and anti-β-actin (Sigma). Horseradish peroxidase-conjugated anti-rabbit or anti-mouse secondary antibodies (Jackson ImmunoResearch, West Grove Pa.) were used, followed by detection using the SuperFemto kit (Pierce Biotechnology, Rockford, Ill.).
# (§2) Class 1 HDACs, including HDAC1, HDAC2, and HDAC3, reportedly could inhibit p53 activity by deacetylating p53 [41-43]. […] To test this, we used lentivirus (pLKO. 1) mediated expression of 2 independent small-hairpin (sh)-RNA sequences against Hdac8 to specifically knock-down Hdac8 in 32D-CM cells. Cells were exposed to IR (3Gy) and analyzed for levels of p53 acetylation 6 h after.
# [5] = system: CM-p53 protein complex; assay: Interaction of CM with p53 under HDAC8i treatment; assay type: cell-based
# Text: as §1, §2
# [6] = biological target: HDAC6 (Homo sapiens (Human), UniProt Q9UBN7); assay: Inhibition of purified HDAC6; details: read-out: HDAC 6 IC50; class II
# Sequence of HDAC6 (Q9UBN7 whole entry, species assumed): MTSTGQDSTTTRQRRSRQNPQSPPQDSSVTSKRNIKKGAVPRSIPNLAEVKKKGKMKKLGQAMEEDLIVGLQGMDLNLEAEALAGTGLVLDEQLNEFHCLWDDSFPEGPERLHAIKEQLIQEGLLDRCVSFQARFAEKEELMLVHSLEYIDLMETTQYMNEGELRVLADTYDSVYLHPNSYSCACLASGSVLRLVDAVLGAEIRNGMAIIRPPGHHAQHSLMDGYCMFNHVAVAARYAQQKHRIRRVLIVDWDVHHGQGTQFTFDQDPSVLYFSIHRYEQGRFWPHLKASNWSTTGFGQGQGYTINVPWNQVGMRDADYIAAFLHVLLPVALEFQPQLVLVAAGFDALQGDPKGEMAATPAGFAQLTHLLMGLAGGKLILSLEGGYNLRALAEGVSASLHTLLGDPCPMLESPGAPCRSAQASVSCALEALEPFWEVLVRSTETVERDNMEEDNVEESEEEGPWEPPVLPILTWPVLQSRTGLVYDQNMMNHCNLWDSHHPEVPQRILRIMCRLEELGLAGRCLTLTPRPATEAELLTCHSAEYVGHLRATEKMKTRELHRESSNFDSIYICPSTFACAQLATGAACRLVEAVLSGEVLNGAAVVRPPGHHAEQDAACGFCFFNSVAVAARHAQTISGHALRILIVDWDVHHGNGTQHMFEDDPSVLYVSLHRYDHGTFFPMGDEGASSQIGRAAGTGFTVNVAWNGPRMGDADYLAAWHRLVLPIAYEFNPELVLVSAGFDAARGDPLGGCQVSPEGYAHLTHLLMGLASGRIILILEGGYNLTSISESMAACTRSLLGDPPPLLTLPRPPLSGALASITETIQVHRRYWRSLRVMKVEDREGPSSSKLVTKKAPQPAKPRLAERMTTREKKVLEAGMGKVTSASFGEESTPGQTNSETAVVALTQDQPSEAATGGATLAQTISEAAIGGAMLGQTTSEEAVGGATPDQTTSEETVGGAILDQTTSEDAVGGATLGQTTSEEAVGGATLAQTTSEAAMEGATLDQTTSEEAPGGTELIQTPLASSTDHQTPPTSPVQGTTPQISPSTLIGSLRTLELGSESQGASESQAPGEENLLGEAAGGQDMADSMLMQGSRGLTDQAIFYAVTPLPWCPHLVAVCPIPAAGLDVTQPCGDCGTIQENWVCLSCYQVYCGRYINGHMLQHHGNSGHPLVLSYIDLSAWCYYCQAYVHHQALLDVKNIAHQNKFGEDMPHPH
# [7] = biological target: HDAC11 (Homo sapiens (Human), UniProt Q96DB2); assay: Inhibition of purified HDAC11; details: read-out: HDAC 11 IC50; class IV
# Sequence of HDAC11 (Q96DB2 whole entry, species assumed): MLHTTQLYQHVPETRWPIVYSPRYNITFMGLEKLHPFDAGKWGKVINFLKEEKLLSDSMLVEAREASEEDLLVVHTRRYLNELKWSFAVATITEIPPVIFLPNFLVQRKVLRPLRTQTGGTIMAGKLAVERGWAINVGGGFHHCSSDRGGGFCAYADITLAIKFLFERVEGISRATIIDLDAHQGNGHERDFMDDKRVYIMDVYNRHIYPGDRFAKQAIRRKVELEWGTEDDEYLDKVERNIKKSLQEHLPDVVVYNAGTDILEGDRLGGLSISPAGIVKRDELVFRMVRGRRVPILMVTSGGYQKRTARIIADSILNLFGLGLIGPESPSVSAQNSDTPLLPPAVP
compound,measurement,setting,value
"COc1ccc(/C=C/C(=O)NO)c(-c2ccc(-c3ccccc3)cc2)c1 [Compound 22d, (E)-N-Hydroxy-4-methoxy-2-(biphenyl-4-yl)cinnamide]",IC50,"[1]; 48-hr, Annexin V labeling, read-out: MV4-11 Apoptosis IC50",2.71 µM
same,survival of MV4-11 cells,"[1]; 48 h, result in words",decreases with increased HDAC8i concentration
same,IC50,"[2]; 48-hr, Annexin V labeling, read-out: MOLM13 Apoptosis IC50",3.62 µM
same,survival of MOLM13 cells,"[2]; 48 h, result in words",decreases with increased HDAC8i concentration
same,survival of KG1a cells,[3],decreases with increased HDAC8i concentration
same,Ac-p53 level in CM-expressing cells,"[4]; Western blot, 6 h",remarkably increased Ac-p53
same,"Ac-p53 level, in combination with Nutlin-3",[4]; compared to Nutlin-3 alone,enhanced Ac-p53 compared to Nutlin-3 alone
same,enhancement of p53 acetylation compared to other HDAC inhibitors,"[4]; vs MS-275, TV6, PCI-24781",differential activity in enhancing p53 acetylation
same,interaction of CM with p53,[5],did not disrupt the interaction of CM with p53
same,IC50,[6],> 0.02 µM
same,IC50,[7],> 0.02 µM
